Test results: a compilation of properties of binary mixtures (doi:10.1021/acs.jced.2c00024)

Assay: xn = mol fraction of the nth substance listed
Conditions: 101 kPa

O=C1CCCO1 + [S-]C#N.COCCN1C=[N+](C=C1)C
x2 = 0
Conditions | viscosity [mPa·s]
288.15 K | 2.02
293.15 K | 1.86
298.15 K | 1.72
303.15 K | 1.59
308.15 K | 1.48
318.15 K | 1.29
323.15 K | 1.21
328.15 K | 1.14
333.15 K | 1.08
338.15 K | 1.02
343.15 K | 0.97

COCCn1cc[n+](C)c1.N#C[S-] + O=C1CCCO1
Conditions | electrical conductivity [S/m] | viscosity [mPa·s]
288.15 K, x1 = 0.1027 | 1.29 | 3.05
288.15 K, x1 = 0.1999 | 1.4 | 4.19
288.15 K, x1 = 0.3001 | 1.28 | 5.5
288.15 K, x1 = 0.4001 | 1.08 | 7.8
288.15 K, x1 = 0.5006 | 0.874 | 13
288.15 K, x1 = 0.6015 | 0.686 | 21.8
288.15 K, x1 = 0.8038 | 0.399 | 51
288.15 K, x1 = 0.9012 | 0.301 | 68
293.15 K, x1 = 0.1027 | 1.41 | 2.73
293.15 K, x1 = 0.1999 | 1.55 | 3.64
293.15 K, x1 = 0.3001 | 1.44 | 4.79
293.15 K, x1 = 0.4001 | 1.24 | 6.7
293.15 K, x1 = 0.5006 | 1.02 | 10.8
293.15 K, x1 = 0.6015 | 0.819 | 17.3
293.15 K, x1 = 0.7036 | 0.645 | 26.8
293.15 K, x1 = 0.9012 | 0.395 | 53
293.15 K, x1 = 1 | 0.315 | 67
298.15 K, x1 = 0.1027 | 1.54 | 2.44
298.15 K, x1 = 0.1999 | 1.72 | 3.18
298.15 K, x1 = 0.4001 | 1.42 | 5.8
298.15 K, x1 = 0.5006 | 1.19 | 9
298.15 K, x1 = 0.6015 | 0.975 | 13.9
298.15 K, x1 = 0.7036 | 0.788 | 21.1
298.15 K, x1 = 0.8038 | 0.636 | 30.3
298.15 K, x1 = 0.9012 | 0.516 | 42
303.15 K, x1 = 0.1027 | 1.68 | 2.21
303.15 K, x1 = 0.1999 | 1.89 | 2.82
303.15 K, x1 = 0.4001 | 1.61 | 5.1
303.15 K, x1 = 0.5006 | 1.38 | 7.7
303.15 K, x1 = 0.6015 | 1.16 | 11.5
303.15 K, x1 = 0.7036 | 0.958 | 17.1
303.15 K, x1 = 0.8038 | 0.785 | 24.4
303.15 K, x1 = 0.9012 | 0.642 | 33.3
303.15 K, x1 = 1 | 0.52 | 42.1
308.15 K, x1 = 0.1027 | 1.82 | 2
308.15 K, x1 = 0.1999 | 2.08 | 2.51
308.15 K, x1 = 0.3001 | 2.02 | 3.27
308.15 K, x1 = 0.4001 | 1.82 | 4.49
308.15 K, x1 = 0.5006 | 1.59 | 6.5
308.15 K, x1 = 0.7036 | 1.14 | 14.1
308.15 K, x1 = 0.8038 | 0.951 | 19.9
308.15 K, x1 = 1 | 0.653 | 34.4
313.15 K, x1 = 0.1999 | 2.27 | 2.25
313.15 K, x1 = 0.3001 | 2.21 | 2.89
313.15 K, x1 = 0.4001 | 2.02 | 3.94
313.15 K, x1 = 0.6015 | 1.56 | 8.2
313.15 K, x1 = 0.8038 | 1.12 | 16.5
313.15 K, x1 = 0.9012 | 0.95 | 22.5
313.15 K, x1 = 1 | 0.795 | 28.6
318.15 K, x1 = 0.1027 | 2.16 | 1.66
318.15 K, x1 = 0.1999 | 2.47 | 2.03
318.15 K, x1 = 0.5006 | 2.03 | 4.92
318.15 K, x1 = 0.6015 | 1.78 | 7
318.15 K, x1 = 0.7036 | 1.54 | 10.2
318.15 K, x1 = 0.8038 | 1.32 | 14
318.15 K, x1 = 0.9012 | 1.13 | 18.9
318.15 K, x1 = 1 | 0.954 | 23.7
323.15 K, x1 = 0.1027 | 2.35 | 1.53
323.15 K, x1 = 0.3001 | 2.66 | 2.34
323.15 K, x1 = 0.6015 | 2 | 6.1
323.15 K, x1 = 0.8038 | 1.51 | 11.9
323.15 K, x1 = 0.9012 | 1.31 | 16
323.15 K, x1 = 1 | 1.12 | 20
328.15 K, x1 = 0.1027 | 2.55 | 1.41
328.15 K, x1 = 0.1999 | 2.92 | 1.69
328.15 K, x1 = 0.3001 | 2.9 | 2.1
328.15 K, x1 = 0.4001 | 2.74 | 2.79
328.15 K, x1 = 0.5006 | 2.5 | 3.75
328.15 K, x1 = 0.6015 | 2.25 | 5.4
328.15 K, x1 = 0.7036 | 1.99 | 7.6
328.15 K, x1 = 0.8038 | 1.74 | 10.4
328.15 K, x1 = 1 | 1.32 | 17.2
333.15 K, x1 = 0.1999 | 3.15 | 1.56
333.15 K, x1 = 0.3001 | 3.16 | 1.9
333.15 K, x1 = 0.4001 | 2.98 | 2.5
333.15 K, x1 = 0.5006 | 2.75 | 3.35
333.15 K, x1 = 0.6015 | 2.48 | 4.81
333.15 K, x1 = 0.7036 | 2.21 | 6.8
333.15 K, x1 = 0.8038 | 1.95 | 9.2
333.15 K, x1 = 0.9012 | 1.72 | 12.1
333.15 K, x1 = 1 | 1.51 | 14.8
338.15 K, x1 = 0.1027 | 2.98 | 1.21
338.15 K, x1 = 0.1999 | 3.41 | 1.43
338.15 K, x1 = 0.3001 | 3.42 | 1.73
338.15 K, x1 = 0.4001 | 3.26 | 2.23
338.15 K, x1 = 0.5006 | 3.02 | 2.95
338.15 K, x1 = 0.8038 | 2.19 | 8.1
338.15 K, x1 = 0.9012 | 1.95 | 10.6
338.15 K, x1 = 1 | 1.72 | 12.9
343.15 K, x1 = 0.1027 | 3.21 | 1.13
343.15 K, x1 = 0.1999 | 3.66 | 1.33
343.15 K, x1 = 0.3001 | 3.71 | 1.62
343.15 K, x1 = 0.4001 | 3.54 | 2.06
343.15 K, x1 = 0.6015 | 3 | 3.86
343.15 K, x1 = 0.8038 | 2.42 | 7.3
343.15 K, x1 = 0.9012 | 2.15 | 9.5
343.15 K, x1 = 1 | 1.92 | 11.3
